Tests used:
[1] = tested on: SMN2 full length splicing in MCF-7 cells; assay: 17-DMAG HSP90 inhibition, RT-PCR of SMN exon 7 splicing with or without heat shock; type: cell-based; settings: for SMN2 full length splicing: 8 hours
Experimental: FIG. 7 provide an image and a graph showing that HSP90 inhibition prevents heat-induced SMN splicing correction. HSP90 inhibition was performed with 17-DMAG in MCF-7 cells. Dose responses were analyzed at 0, 10, 20, 40 nM 17-DMAG for 8 hours, with or without 41° C. heat treatment. Total RN A was harvested and RT-PCR amplification of SMN transcripts was used to observe splicing levels of exon 7. Significance levels are: * p-value<0.05, **p-value <0.01.
To validate the role of HSP90 in the SMN2 splicing under heat shock, the HSP90 ATPase inhibitor, 17-DMAG was administered to MCF-7 cells. 17-DMAG was administered at 0, 10 nM, 20 nM, and 40 nM concentrations the same time as the heat shock treatment, for the duration of 8 hours. Experiments were performed in parallel at 37° C. and 41° C. […] (FIG. 7). […] Full length SMN2 is quantitated for all samples and three trials are graphed, showing significant alterations in SMN splicing.
17-DMAG (17-Dimethylaminoethylamino-17-demethoxygeldanamycin) was purchased from Cayman Chemicals and resuspended in DMSO to a 20 mM stock. Then treatments were administered to cultured cells at a density of 75% in 6 well plates.
Cells grown under normal conditions (37° C.) were grown in a 5% C02, humidified incubator. Cells grown under heat shock conditions (38°-41° C.) were cultured at 5% C02, humidified incubators set to respective temperatures and monitored for temperature fluctuations with calibrated digital thermometer. Cells were maintained at their temperature treatment for the duration of the time point and harvested for RNA or protein directly following treatment.
Total RNA was isolated from samples using RNeasy kits (Qiagen). cDNA was created from RNA with Roche Transcriptor Reverse Transcriptase. cDNA was created from 1.5 ug of total RNA using random hexamers (Roche). PCR was performed with Sigma Taq Polymerase to detect exon 7 splicing of SMN1 and SMN2 transcripts. Primers were designed to flank exon 7 to visualize both full length and exon-skipped products: forward primer in exon 6 and reverse primer in exon 8. PCR cycles were performed with the following conditions: annealing temperature 62° C., 30 sec; 72° C. extension, 1 min; for 35 cycles. Importantly, there exists a unique digestion site (Ddel) within this PCR amplicon in exon 8 of SMN2. Therefore, to distinguish between SMN1 and SMN2transcripts, PCR products were digested with the enzyme Ddel. Subsequent digested PCR products were then resolved on 2.5% agarose gels (product sizes: SMN1 full-length: 507 bp, SMN1A7: 453 bp, SMN2 full-length: 392 bp, SMN2M: 338 bp). Splicing ratios were determined by densitometry (ImageQuant software, GE Healthcare Life Sciences) and statistical analysis (two tailed t test) performed using Graphpad Prism software.

[2] = tested on: SMN2 exon 7 inclusion in differentiated SH-SY5Y cells; assay: Oxidative stress treatment, RT-PCR of SMN2 splicing; type: cell-based; settings: 20 μM for 24 hours (oxidative stress)
Experimental: FIGS. 2A-2C provide graphs and images showing that heat shock increases the functional splicing product of SMN2 in a dose and time-dependent manner. A. Neuroblastoma cell line, SHSY-5Y, were differentiated for 7-9 days in 5 μM retinoic acid and then treated with various stresses to characterize the level of SMN2 as a stress-responsive gene. RNA splicing levels of SMN1 and 2 were observed by performing RTPCR analysis on total mRNA harvested from cell lysates. […] B. To test the cell-type specificity of the heat shock effect on SMN splicing, we performed a heat shock treatment on several cell lines. All treatments were performed with 24 hours of 41° C. and compared with NT (37° C.) quantitation is shown (n-3). This treatment was performed in Differentiated SHSY-5Y cells, SMA patient fibroblasts (GM03813), SMA carrier fibroblasts (GM03814), and a breast cancer cell line (MCF-7) cells. Heat treatment induces a significant change in splicing in all cell lines tested. C. To test the duration of heat treatment necessary for heat shock induced splicing correction a time course was performed. Differentiated SHSY-5Y cells were treated with 41° C. for 1, 4, 8, and 24 hour time intervals. D. To test the quantity of heat required to elicit splicing correction, a heat treatment dose response was performed. Differentiated SHSY-5Y cells were treated with temperatures from 37° to 41° C. for 8 hours. […]

Structure (SMILES)	SMN2 full length splicing ([1]; 10 nM, 37° C.)	SMN2 full length splicing ([1]; 10 nM, 41° C.)	SMN2 full length splicing ([1]; 20 nM, 37° C.)	SMN2 full length splicing ([1]; 20 nM, 41° C.)	SMN2 full length splicing ([1]; 40 nM, 37° C.)	SMN2 full length splicing ([1]; 40 nM, 41° C.)	heat shock-induced full length SMN2 splicing (summary statement) ([1]; heat shock)	SMN2 exon 7 inclusion [2]
CO[C@H]1/C=C\C=C(/C)C(=O)NC2=CC(=O)C(NCCN(C)C)=C(C[C@@H](C)C[C@H](OC)[C@H](O)[C@@H](C)/C=C(\C)[C@@H]1OC(N)=O)C2=O [17-DMAG, 17-Dimethylaminoethylamino-17-demethoxygeldanamycin]	significant decrease	significantly decreased the full length splicing to even below baseline splicing at 37 °C	began to approach basal splicing levels	significantly decreased the full length splicing to even below baseline splicing at 37 °C	began to approach basal splicing levels	significantly decreased the full length splicing to even below baseline splicing at 37 °C	prevents	–
OO [HO2]	–	–	–	–	–	–	–	mild decreases in exon 7 inclusion

— patent publication US20250268748A1, “TREATMENT OF SPINAL MUSCULAR ATROPHY BY INDUCING HEAT SHOCK RESPONSE” (THE RESEARCH INSTITUTE AT NATIONWIDE CHILDREN'S HOSPITAL, priority 2016, published 2025)
